Laboratory results: patent US8598202B2, “Aryl-hydroxyethylamino-pyrimidines and triazines as modulators of fatty acid amide hydrolase” (Janssen Pharmaceutica NV, priority 2008, dated 2013)
pIC50: −log10 of the molar value. Where a name gives a salt, the structure may show the parent alone. Read-outs that look alike come from different tables or passages of the source.

Assays:
Rat FAAH-1 = target: T1, Rat FAAH-1 (Rattus norvegicus, UniProt P97612); assay: Assay Method 2: rat FAAH-1 assay, 3H-anandamide hydrolysis in homogenate of SK-N-MC cells transfected with rat FAAH
T1 sequence (P97612 1-579): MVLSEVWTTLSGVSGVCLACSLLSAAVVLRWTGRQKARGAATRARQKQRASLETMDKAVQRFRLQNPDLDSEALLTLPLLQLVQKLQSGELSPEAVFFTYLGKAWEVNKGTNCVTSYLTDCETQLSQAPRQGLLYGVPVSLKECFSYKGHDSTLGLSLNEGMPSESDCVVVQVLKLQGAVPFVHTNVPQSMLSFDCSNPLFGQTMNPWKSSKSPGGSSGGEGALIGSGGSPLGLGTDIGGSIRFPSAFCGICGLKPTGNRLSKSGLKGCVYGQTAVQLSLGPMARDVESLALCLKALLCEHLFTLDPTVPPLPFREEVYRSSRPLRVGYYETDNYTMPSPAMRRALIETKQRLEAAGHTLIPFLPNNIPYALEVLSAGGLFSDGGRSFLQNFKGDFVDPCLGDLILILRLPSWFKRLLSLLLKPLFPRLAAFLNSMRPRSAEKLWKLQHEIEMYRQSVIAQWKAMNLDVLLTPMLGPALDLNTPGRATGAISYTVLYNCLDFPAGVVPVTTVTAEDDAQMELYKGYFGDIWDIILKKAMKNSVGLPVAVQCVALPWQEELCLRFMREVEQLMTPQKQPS

FAAH = target: T2, FAAH (Homo sapiens, UniProt O00519); assay: Assay Method 1: FAAH assay, 3H-anandamide hydrolysis in homogenate of T84 cells or SK-N-MC cells transfected with human FAAH
T2 sequence (O00519 1-579): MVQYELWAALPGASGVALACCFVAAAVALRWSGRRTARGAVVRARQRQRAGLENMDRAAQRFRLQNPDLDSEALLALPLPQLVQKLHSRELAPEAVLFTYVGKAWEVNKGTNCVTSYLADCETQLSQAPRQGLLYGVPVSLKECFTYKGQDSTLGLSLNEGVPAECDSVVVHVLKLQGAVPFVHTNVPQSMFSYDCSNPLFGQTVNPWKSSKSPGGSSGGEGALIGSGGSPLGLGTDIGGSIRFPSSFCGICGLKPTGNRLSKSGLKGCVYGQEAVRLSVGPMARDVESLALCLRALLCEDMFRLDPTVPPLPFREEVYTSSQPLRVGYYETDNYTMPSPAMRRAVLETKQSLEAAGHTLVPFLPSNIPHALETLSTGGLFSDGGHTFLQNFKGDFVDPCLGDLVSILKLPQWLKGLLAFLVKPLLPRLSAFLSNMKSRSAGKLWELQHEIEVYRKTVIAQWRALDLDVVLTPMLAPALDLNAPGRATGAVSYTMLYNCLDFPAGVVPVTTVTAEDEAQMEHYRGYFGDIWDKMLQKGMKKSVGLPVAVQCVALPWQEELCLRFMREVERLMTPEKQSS

[1] = read-out: Assay 2 IC50, Table 2, Comparative Examples, rat FAAH-1
[2] = read-out: Assay 1 IC50, Table 2, Comparative Examples, human FAAH

| pIC50 (FAAH) | SMILES | also measured |
| --- | --- | --- |
| < 5.00 | OC(CNc1cc(-c2c(C(F)(F)F)cccc2C(F)(F)F)ncn1)c1ccccc1 (centres unmarked) [CE1, 2-[6-(2,6-Bis-trifluoromethyl-phenyl)-pyrimidin-4-ylamino]-1-phenyl-ethanol, reference compound] | pIC50 (Rat FAAH-1): < 5.00 |
| – | CC(=O)Nc1cccc(-c2cc(NCC(O)c3ccccc3)ncn2)c1 (centres unmarked) [CE2, N-{3-[6-(2-Hydroxy-2-phenyl-ethylamino)-pyrimidin-4-yl]-phenyl}-acetamide, reference compound] | pIC50 (Rat FAAH-1; [1]): < 5.00; pIC50 (FAAH; [2]): < 5.00 |
| – | OC(CNc1cc(-c2ccccc2)ncn1)c1ccccc1 (centres unmarked) [CE3, 1-Phenyl-2-(6-phenyl-pyrimidin-4-ylamino)-ethanol, reference compound] | pIC50 (FAAH; [2]): < 5.00 |
| – | OC(CNc1cc(-c2c(F)cccc2F)ncn1)c1ccccc1 (centres unmarked) [CE4, 2-[6-(2,6-Difluoro-phenyl)-pyrimidin-4-ylamino]-1-phenyl-ethanol, reference compound] | pIC50 (Rat FAAH-1; [1]): < 5.00; pIC50 (FAAH; [2]): < 5.00 |
| – | OC(CNc1cc(-c2cccs2)ncn1)c1ccccc1 (centres unmarked) [CE5, 1-Phenyl-2-(6-thiophen-2-yl-pyrimidin-4-ylamino)-ethanol, reference compound] | pIC50 (Rat FAAH-1; [1]): < 5.00; pIC50 (FAAH; [2]): < 5.00 |
| – | Oc1ccc(-c2cc(NCC(O)c3ccccc3)ncn2)cc1 (centres unmarked) [CE6, 4-[6-(2-Hydroxy-2-phenyl-ethylamino)-pyrimidin-4-yl]-phenol, reference compound] | pIC50 (Rat FAAH-1; [1]): < 5.00; pIC50 (FAAH; [2]): 5.15 |
| – | OC(CNc1cc(-c2ccsc2)ncn1)c1ccccc1 (centres unmarked) [CE7, 1-Phenyl-2-(6-thiophen-3-yl-pyrimidin-4-ylamino)-ethanol, reference compound] | pIC50 (Rat FAAH-1; [1]): < 5.00; pIC50 (FAAH; [2]): < 5.00 |
| – | Nc1cccc(-c2cc(NCC(O)c3ccccc3)ncn2)c1 (centres unmarked) [CE8, 2-[6-(3-Amino-phenyl)-pyrimidin-4-ylamino]-1-phenyl-ethanol, reference compound] | pIC50 (FAAH; [2]): < 5.00 |
| 6.46 | OC(CNc1cc(-c2ccc(Cl)cc2)ncn1)c1ccccc1 (centres unmarked) [Example 2, 2-{[6-(4-Chlorophenyl)pyrimidin-4-yl]amino}-1-phenylethanol] | pIC50 (Rat FAAH-1): 5.89 |
| 6.33 | OC(CNc1cc(-c2cccc(Cl)c2)ncn1)c1ccccc1 (centres unmarked) [Example 9, 2-{[6-(3-Chlorophenyl)pyrimidin-4-yl]amino}-1-Phenylethanol] | – |
| 7.46 | OC(CNc1cc(-c2ccc(Oc3ccccc3)cc2)ncn1)c1ccccc1 (centres unmarked) [Example 13, 1-Phenyl-2-({6-[4-(phenyloxy)phenyl]pyrimidin-4-yl}amino)ethanol] | – |
| 5.30 | O=Cc1cccc(-c2cc(NC[C@H](O)c3ccccc3)ncn2)c1 [Example 23, 3-(6-{[(2R)-2-Hydroxy-2-phenylethyl]amino}pyrimidin-4-yl)benzaldehyde] | – |
| 6.41 | O[C@@H](CNc1cc(-c2cccc(OCC(F)(F)F)c2)ncn1)c1ccccc1 [Example 25, (1R)-1-Phenyl-2-[(6-{3-[(2,2,2-trifluoroethyl)oxy]phenyl}pyrimidin-4-yl)amino]ethanol] | – |
| 5.85 | Cc1cc(-c2cc(NC[C@H](O)c3ccccc3)ncn2)cc(C)c1OC(C)C [Example 52, (1R)-2-({6-[3,5-Dimethyl-4-(1-methylethoxy)phenyl]pyrimidin-4-yl}amino)-1-phenylethanol trifluoroacetic acid salt] | – |
| 7.70 | O=S(=O)(NC1CC1)c1ccc(-c2cc(NC[C@H](O)c3ccccc3)ncn2)cc1 [Example 67, N-Cyclopropyl-4-(6-{[(2R)-2-hydroxy-2-phenylethyl]amino}pyrimidin-4-yl)benzenesulfonamide] | – |
| 7.00 | O[C@@H](CNc1cc(-c2cnn(Cc3ccccc3)c2)ncn1)c1ccccc1 [Example 74, (1R)-2-{[6-(1-Benzyl-1H-pyrazol-4-yl)pyrimidin-4-yl]amino}-1-phenylethanol] | – |
| – | Cc1cc(-c2cc(NC[C@H](O)c3ccccc3)ncn2)cnc1F [Example 75, (1R)-2-{[6-(6-Fluoro-5-methylpyridin-3-yl)pyrimidin-4-yl]amino}-1-phenylethanol] | pIC50 (Rat FAAH-1): < 5.00 |

| pIC50 (FAAH) | SMILES | also measured |
| --- | --- | --- |
| 6.24 | CCOc1cccc(-c2cc(NC[C@H](O)c3ccccc3)ncn2)c1 [Example 97, (1R)-2-{[6-(3-Ethoxyphenyl)pyrimidin-4-yl]amino}-1-phenylethanol] | – |
| 6.07 | CCCOc1cccc(-c2cc(NC[C@H](O)c3ccccc3)ncn2)c1 [Example 98, (1R)-1-Phenyl-2-{[6-(3-propoxyphenyl)pyrimidin-4-yl]amino}ethanol] | – |
| 5.30 | Oc1ccc(C(O)CNc2cc(-c3ccc(OC(F)(F)F)cc3)ncn2)cc1 (centres unmarked) [Example 110, 4-{1-Hydroxy-2-[(6-{4-[(trifluoromethyl)oxy]phenyl}pyrimidin-4-yl)amino]ethyl}phenol] | – |
| 6.15 | OC(CNc1cc(-c2ccc(OC(F)(F)F)cc2)ncn1)c1ccccn1 (centres unmarked) [Example 123, 1-Pyridin-2-yl-2-[(6-{4-[(trifluoromethyl)oxy]phenyl}pyrimidin-4-yl)amino]ethanol] | – |
| 6.43 | CS(=O)(=O)c1nc(NC[C@H](O)c2ccccc2)cc(-c2ccc(C(F)(F)F)c(Cl)c2)n1 [Example 138, (1R)-2-({6-[3-Chloro-4-(trifluoromethyl)phenyl]-2-(methylsulfonyl)pyrimidin-4-yl}amino)-1-phenylethanol] | – |
| 5.70 | C[S+]([O-])c1nc(NC[C@H](O)c2ccccc2)cc(-c2ccc(C(F)(F)F)c(Cl)c2)n1 (stereo partly drawn) [Example 139, (1R)-2-({6-[3-Chloro-4-(trifluoromethyl)phenyl]-2-(methylsulfinyl)pyrimidin-4-yl}amino)-1-phenylethanol] | – |
| 6.69 | COc1ccc(-c2cc(NCC(O)c3ccccc3)ncn2)cc1 (centres unmarked) [Example 147, 2-({6-[4-(Methyloxy)phenyl]pyrimidin-4-yl}amino)-1-phenylethanol] | – |
| 5.52 | Cc1cccc(-c2cc(NCC(O)c3ccccc3)ncn2)c1 (centres unmarked) [Example 148, 2-{[6-(3-Methylphenyl)pyrimidin-4-yl]amino}-1-phenylethanol] | – |
| 6.39 | OC(CNc1cc(-c2cccc(OC(F)(F)F)c2)ncn1)c1ccccc1 (centres unmarked) [Example 149, 1-Phenyl-2-[(6-{3-[(trifluoromethyl)oxy]phenyl}pyrimidin-4-yl)amino]ethanol] | – |
| 6.52 | COc1cc(OC(F)(F)F)ccc1-c1cc(NC[C@H](O)c2ccccc2)ncn1 [Example 153, (1R)-2-({6-[2-Methoxy-4-(trifluoromethoxy)phenyl]pyrimidin-4-yl}amino)-1-phenylethanol trifluoroacetic acid salt] | – |
| 7.19 | CCOc1ccc(-c2cc(NC[C@H](O)c3ccccc3)ncn2)c(C)c1 [Example 154, (1R)-2-{[6-(4-Ethoxy-2-methylphenyl)pyrimidin-4-yl]amino}-1-phenylethanol trifluoroacetic acid salt] | – |
| – | O[C@@H](CNc1cc(-c2ccc(C(F)(F)F)c(Cl)c2)nc(N2CCC2)n1)c1ccccc1 [Example 161, (1R)-2-({2-Azetidin-1-yl-6-[3-chloro-4-(trifluoromethyl)phenyl]pyrimidin-4-yl}amino)-1-Phenylethanol trifluoroacetic acid salt] | pIC50 (Rat FAAH-1): 6.24 |
| 5.52 | CC(O)(CNc1cc(-c2ccc(C(F)(F)F)c(Cl)c2)ncn1)c1ccccc1 (centres unmarked) [Example 166, 1-({6-[3-Chloro-4-(trifluoromethyl)phenyl]pyrimidin-4-yl}amino)-2-Phenylpropan-2-ol] | – |
| 6.39 | COc1ccc(-c2cc(NCC(O)c3ccccc3)ncn2)cc1OC (centres unmarked) [Example 229, 2-[6-(3,4-Dimethoxy-phenyl)-pyrimidin-4-ylamino]-1-phenyl-ethanol] | – |
| < 5.00 | Nc1cccc(-c2cc(NCC(O)c3ccccc3)ncn2)c1 (centres unmarked) [Example 240, 2-[6-(3-Amino-phenyl)-pyrimidin-4-ylamino]-1-phenyl-ethanol] | – |
| < 5.00 | OC(CNc1cc(-c2ccccc2)ncn1)c1ccccc1 (centres unmarked) [Example 243, 1-Phenyl-2-(6-phenyl-pyrimidin-4-ylamino)-ethanol] | – |

| SMILES | pIC50 (FAAH) | also measured |
| --- | --- | --- |
| CCCCOc1ccc(-c2cc(NC[C@H](O)c3ccccc3)ncn2)cc1 [Example 34, (1R)-2-{[6-(4-Butoxyphenyl)pyrimidin-4-yl]amino}-1-phenylethanol trifluoroacetic acid salt] | 6.30 | – |
